Values after ≈ are worked out from the molar mass of the structure shown. Read-outs that look alike come from different tables or passages of the source.
Columns and labels:
[1] = molecular target: T1, hERG potassium channel (Homo sapiens, UniProt Q12809); assay: FP-based hERG binding assay (Invitrogen kit)
T1 construct: purchased Invitrogen (kit); assay run at TCG Lifesciences Pvt; Ltd. India
Method: Supplementary Table 7. Results of cytotoxicity studies. […]
Cardiovascular hERG inhibition
Cardiovascular safety profile was entirely outsourced. hERG screening was performed at TCG
Lifesciences Pvt. Ltd. India with FP -based hERG binding assay (Invitrogen kit).

[2] = tested on: HUVEC; assay: Metabolic activity assessment (CellTiter 96 Aqueous One), HUVEC; type: cell-based; conditions: Homo sapiens, 72 h treatment, mean ± SD
Method: (§1) Supplementary Table 7. Results of cytotoxicity studies.
(§2) Metabolic activity assessment
(§3) Cells of the HepG2 line ( ATCC® HB-8065™) and HUVEC ( ATCC® CRL-1730™) were cultured in Dulbecco’s Modified Eagle Medium (DMEM; Sigma-Aldrich, St. Louis, MO, USA) supplemented with 10% heat -deactivated FBS (Gibco, Grand Island/NY, USA), 2 mM L -glutamine, 100 U/mL penicillin, 100 µg/mL streptomycin (all from Sigma -Aldrich) in a humidified chamber at 37 °C and 5% CO2. The experiments were carried out on passages 7 - 9 for both cell lines. The tested compounds were dissolved in DMSO and further diluted in culture medium to a desired final concentration. […]
(§4) 10^4 cells/mL (100 µL/well) and after attachm ent treated with seven different concentration of the selected compounds or corresponding vehicle as control. The metabolic activity was assessed after 72 h treatment using the CellTiter 96 Aqueous One Solution Cell Proliferation Assay (Promega, Madison/WI, USA), in accordance with the manufacturer’s instructions .7 The absorbance was measured at 492 nm on an automated microplate reader BioTek Synergy HT (BioTek Instruments, Inc.). Data are presented as IC 50 value (mean ± SD) from two independent experiments , each conducted in duplicate or triplicate. IC 50 values were calculated by a non -linear regression model using Graph Pad Prism 7 software. […]

[3] = molecular target: T2, S. aureus DNA gyrase (Staphylococcus aureus, UniProt P20831); assay: Gyrase Supercoiling High Throughput Plate Assay (fluorescence), S. aureus; type: biochemical; conditions: fluorescence-based high throughput plate assay
T2 construct: purchased Inspiralis (Norwich, UK)
Method: A Gyrase Supercoiling High Throughput Plate Assay kit, purchased from Inspiralis (Norwich. UK), was used to determine IC50 values of compounds on S. aureus and E. coli gyrase. […] Biotinylated oligonucleotide in wash buffer was immobilized onto the wells, and the excess oligonucleotide was washed off with wash buffer and ultrapure water. […] The reactions were stopped by adding the TF buffer (50 mM NaOAc (pH 4.7), 50 mM NaCl, and 50 mM MgCl2) to allow the triplex formation (biotin–oligonucleotide–plasmid) for an additional 30 min. Afterward, the unbound plasmid was washed off using TF buffer, and the solution of Promega Diamond dye in T10 buffer (10 mM Tris-HCl (pH 8.0), 1 mM EDTA) was added. […] Preliminary screening was performed at four inhibitor concentrations of 100, 10, 1, and 0.1 μM. […] IC50 was calculated using nonlinear regression-based fitting of inhibition curves using log [inhibitor] versus response-variable slope (four parameters)—symmetrical equation in the GraphPad Prism 6.0 software (GraphPad Software, La Jolla, CA, USA, www.graphpad.com). IC50 values represent the mean of two to four independent measurements.
Target sequence in this assay (P20831 whole entry): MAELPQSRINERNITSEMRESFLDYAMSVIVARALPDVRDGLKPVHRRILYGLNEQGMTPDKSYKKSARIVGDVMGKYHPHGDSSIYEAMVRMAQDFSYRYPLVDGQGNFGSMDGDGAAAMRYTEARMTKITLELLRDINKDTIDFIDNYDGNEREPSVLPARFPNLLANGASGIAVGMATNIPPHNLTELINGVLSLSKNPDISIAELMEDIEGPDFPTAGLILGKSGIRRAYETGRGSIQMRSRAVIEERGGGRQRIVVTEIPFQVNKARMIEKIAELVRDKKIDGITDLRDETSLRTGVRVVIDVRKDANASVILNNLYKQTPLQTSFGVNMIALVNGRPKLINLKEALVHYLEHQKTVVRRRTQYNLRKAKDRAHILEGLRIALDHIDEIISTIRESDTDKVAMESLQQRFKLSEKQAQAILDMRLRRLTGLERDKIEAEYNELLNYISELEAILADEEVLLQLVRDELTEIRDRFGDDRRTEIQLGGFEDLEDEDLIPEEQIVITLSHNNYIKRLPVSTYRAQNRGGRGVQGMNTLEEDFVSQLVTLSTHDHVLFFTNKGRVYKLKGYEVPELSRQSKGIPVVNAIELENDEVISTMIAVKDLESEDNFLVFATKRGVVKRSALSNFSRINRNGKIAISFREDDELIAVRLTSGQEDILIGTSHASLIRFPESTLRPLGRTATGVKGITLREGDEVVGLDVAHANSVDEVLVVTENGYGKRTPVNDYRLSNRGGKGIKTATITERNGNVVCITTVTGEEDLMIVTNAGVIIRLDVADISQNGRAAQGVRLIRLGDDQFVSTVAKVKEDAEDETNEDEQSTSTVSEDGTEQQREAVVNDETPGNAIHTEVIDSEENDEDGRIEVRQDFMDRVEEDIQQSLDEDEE
Target sequence in this assay (P0A0K8 whole entry partner): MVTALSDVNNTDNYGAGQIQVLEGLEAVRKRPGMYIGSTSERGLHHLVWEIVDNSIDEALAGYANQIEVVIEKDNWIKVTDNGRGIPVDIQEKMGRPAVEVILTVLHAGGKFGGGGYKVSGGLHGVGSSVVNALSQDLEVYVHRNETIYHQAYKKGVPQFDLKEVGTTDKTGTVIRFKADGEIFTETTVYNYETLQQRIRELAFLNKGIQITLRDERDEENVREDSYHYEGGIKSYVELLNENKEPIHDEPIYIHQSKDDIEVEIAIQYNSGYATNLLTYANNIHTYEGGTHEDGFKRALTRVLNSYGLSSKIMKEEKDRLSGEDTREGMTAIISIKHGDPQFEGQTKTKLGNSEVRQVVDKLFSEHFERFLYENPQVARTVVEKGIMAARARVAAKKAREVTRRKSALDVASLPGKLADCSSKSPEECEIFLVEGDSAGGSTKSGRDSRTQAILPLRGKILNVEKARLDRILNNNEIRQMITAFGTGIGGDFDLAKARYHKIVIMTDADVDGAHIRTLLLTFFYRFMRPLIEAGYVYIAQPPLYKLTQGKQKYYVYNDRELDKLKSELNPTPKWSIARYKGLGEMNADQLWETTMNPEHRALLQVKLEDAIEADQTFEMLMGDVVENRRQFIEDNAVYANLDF

[4] = tested on: HepG2; assay: Metabolic activity assessment (CellTiter 96 Aqueous One), HepG2; type: cell-based; conditions: Homo sapiens, 72 h treatment, mean ± SD
Method: as §1, §2, §3, §4

[5] = molecular target: T2, S. aureus DNA gyrase; assay: Gel-based S. aureus Gyrase Supercoiling assay (Inspiralis); type: biochemical
Method: gyrase supercoiling assays
In all experiments, the activity of the enzyme was determined prior to the testing of the compounds and 1 U defined as the amount of enzyme required to fully supercoil the substrate. This amount of enzyme was used in all subsequent assays. The final DMSO concentration in all the reactions was 1% (v/v). Compounds were serially diluted in DMSO and added to the reaction before the addition of the […]
Staphylococcus aureus gyrase supercoiling assay
1 U of DNA gyrase was incubated with 0.5 μg of relaxed pBR322 DNA in a 30 μl reaction at 37 °C for 30 min under the following conditions: 40 mM HEPES·KOH (pH 7.6), 10 mM magnesium acetate, 10 mM DTT, 2 mM ATP, 500 mM potassium glutamate and 0.05 mg/ml BSA. Each reaction was stopped by the addition of 30 μl chloroform/iso-amyl alcohol (24:1) and 20 μl Stop Dye (40% sucrose, 100 mM Tris.HCl ( pH 7.5), 10 mM EDTA, 0.5 μg/ml bromophenol blue), before being loaded on a 1.0% TAE (Tris.acetate […], EDTA […]). Gels run at 70V for 3 hours.
Data acquisition and analysis
Bands were visualised by ethidium staining for 10 min, destained for 10 min in water and bands were analysed by gel documentation equipment (Syngene, Cambridge, UK) and quantitated using Syngene Gene Tools software. Raw gel data (fluorescent band volumes) collected from Syngene, GeneTools gel analysis software were converted to a % of the 100% control (the fully supercoiled or relaxed […]
global curve fit non-linear regression tool was used to calculate IC50 data using the following equation:
Equation: Exponential Decay, Single, 2 Parameter f = ae−bx
(1 picture or pasted object on this page, not shown here)
Target sequence in this assay (P20831 whole entry): as the sequence (P20831 whole entry) above
Target sequence in this assay (P0A0K8 whole entry, further chain): as the sequence (P0A0K8 whole entry partner) above

[6] = tested on: S. aureus (ATCC 29213); assay: Broth microdilution MIC, S. aureus; type: cell-based; conditions: Staphylococcus aureus, ATCC29213, 20 h, 37 °C
Method: (§5) Antimicrobial assays were performed by the broth microdilution method in 96-well plate format according to the Clinical and Laboratory Standards Institute guidelines[46] and European Committee on Antimicrobial Susceptibility Testing recommendations. First, bacterial suspensions of specific bacterial strains was prepared to obtain density equivalent to 0.5 McFarland turbidity standard, followed by dilution with cation-adjusted Mueller Hinton broth with TES (Thermo Fisher Scientific), to obtain a final inoculum of 10^5 colony-forming units/mL. Compounds were dissolved in DMSO and twofold dilutions were prepared, then inoculum was added and the mixture was incubated for 20 h at 37 °C. After incubation, the MIC values were read off by visual assessment as the lowest dilution of compound showing no turbidity. The MICs were determined against S. aureus (ATCC 29213), MRSA (NCTC12493), E. coli (ATCC 25922), E. coli D22, and E. coli N43 bacterial strains. Tetracycline was used as a positive control on every assay plate, displaying MICs of 0.5 and 1 μg/mL for S. aureus and E. coli, respectively.

[7] = tested on: MRSA (NCTC12493); assay: Broth microdilution MIC, MRSA; type: cell-based, S. aureus; conditions: Staphylococcus aureus, 20 h, 37 °C
Method: as §5

[8] = tested on: E. coli (ATCC 25922); assay: Broth microdilution MIC, E. coli; type: cell-based; conditions: Escherichia coli, ATCC25922, 20 h, 37 °C
Method: as §5

T1 sequence (Q12809 whole entry): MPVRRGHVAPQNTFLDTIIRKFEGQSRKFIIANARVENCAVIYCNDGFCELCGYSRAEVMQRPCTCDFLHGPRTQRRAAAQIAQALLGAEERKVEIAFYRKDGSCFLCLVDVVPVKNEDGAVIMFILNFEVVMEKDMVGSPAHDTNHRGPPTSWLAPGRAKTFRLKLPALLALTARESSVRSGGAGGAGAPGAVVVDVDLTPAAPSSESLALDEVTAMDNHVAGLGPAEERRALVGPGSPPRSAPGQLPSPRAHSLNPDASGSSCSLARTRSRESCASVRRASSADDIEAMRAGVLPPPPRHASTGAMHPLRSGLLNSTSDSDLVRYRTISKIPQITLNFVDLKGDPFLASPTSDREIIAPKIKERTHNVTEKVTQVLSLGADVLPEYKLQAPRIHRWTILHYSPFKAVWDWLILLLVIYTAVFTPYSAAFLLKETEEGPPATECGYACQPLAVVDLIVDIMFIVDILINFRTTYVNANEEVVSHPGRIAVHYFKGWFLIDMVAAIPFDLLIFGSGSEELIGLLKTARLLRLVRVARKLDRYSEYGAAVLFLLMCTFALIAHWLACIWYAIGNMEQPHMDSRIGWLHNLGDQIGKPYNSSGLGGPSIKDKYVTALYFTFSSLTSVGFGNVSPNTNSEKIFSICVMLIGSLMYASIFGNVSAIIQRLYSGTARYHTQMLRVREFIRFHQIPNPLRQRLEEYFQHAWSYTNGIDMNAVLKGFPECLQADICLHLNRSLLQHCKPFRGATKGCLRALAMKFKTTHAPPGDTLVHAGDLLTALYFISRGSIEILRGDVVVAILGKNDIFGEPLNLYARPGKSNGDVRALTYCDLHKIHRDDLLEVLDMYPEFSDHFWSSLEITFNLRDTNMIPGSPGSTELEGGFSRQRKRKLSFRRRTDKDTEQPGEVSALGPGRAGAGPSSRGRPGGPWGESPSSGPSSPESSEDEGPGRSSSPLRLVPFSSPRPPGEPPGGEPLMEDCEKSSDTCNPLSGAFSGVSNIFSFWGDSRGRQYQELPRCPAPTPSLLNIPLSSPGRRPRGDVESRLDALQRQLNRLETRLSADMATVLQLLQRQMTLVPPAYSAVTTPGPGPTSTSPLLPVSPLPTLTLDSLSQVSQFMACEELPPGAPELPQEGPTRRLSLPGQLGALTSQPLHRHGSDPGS

SMILES | IC50 [1] | IC50 [2] | IC50 [3] | IC50 [4] | other results
COc1ccc2nccc(CCN3CCC(NCc4ccccc4)CC3)c2n1 [Compound 2] | 1050 nM | 54.1 ± 3.45 µM | 1020 nM | 17.7 ± 2.16 µM | –
COc1ccc2nccc(CCN3CCC(NCc4ccc(F)cc4)CC3)c2n1 [Compound 3] | 590 nM | > 50 µM | 550 nM | 12.7 ± 0.21 µM | –
COc1ccc2nccc(CCN3CCC(NCc4ccc(Cl)cc4)CC3)c2n1 [Compound 4] | 270 nM | 27 ± 0.38 µM | – | 10.16 ± 0.1 µM | –
COc1ccc2nccc(CCN3CCC(NCc4ccc(Br)cc4)CC3)c2n1 [Compound 5] | 290 nM | 25.42 ± 0.01 µM | – | 9.37 ± 0.07 µM | IC50 ([5]; IC50 S. aureus DNA gyrase supercoiling, gel-based assay): 7 nM; IC50 ([5]; S. aureus gyrase supercoiling IC50 Assay 1, gel-based assay, assay 1): 7 nM; IC50 ([5]; S. aureus gyrase supercoiling IC50 Assay 2, gel-based assay, assay 2): 7 nM; IC50 ([5]; S. aureus gyrase supercoiling IC50 Average, gel-based assay, average of assay 1 and 2): 7 nM; IC50 ([5]; S. aureus inhibition (DNA supercoiling IC50), as quoted in point-by-point response): 7 nM; IC50 ([5]; S. aureus inhibition (DNA supercoiling IC50), as quoted in reviewer report): 7 nM
COc1ccc2nccc(CCN3CCC(NCc4ccc(I)cc4)CC3)c2n1 [Compound 6] | – | 19 ± 0.85 µM | – | 8.47 ± 0.09 µM | IC50 ([1]; human, FP-based hERG binding assay kit (Invitrogen)): 180 nM; IC50 ([5]; read-out: S. aureus gyrase supercoiling IC50 Assay 1, gel-based assay, assay 1): 13 nM; IC50 ([5]; read-out: S. aureus gyrase supercoiling IC50 Assay 2, gel-based assay, assay 2): 9 nM
COc1ccc2nccc(CCN3CCC(NCc4ccc(C(N)=O)cc4)CC3)c2n1 [Compound 8] | 13400 nM | > 50 µM | – | – | –
COc1ccc2nccc(CCN3CCC(NCc4ccc(N(C)C)cc4)CC3)c2n1 [Compound 9] | 2110 nM | 23.85 ± 0.09 µM | 67 nM | 10.03 ± 0.06 µM | MIC [6]: 0.125 µg/mL (≈ 0.298 µM); MIC [7]: 0.25 µg/mL (≈ 0.596 µM)
CN(C)[C@@H]1C(O)=C(C(N)=O)C(=O)[C@@]2(O)C(O)=C3C(=O)c4c(O)cccc4[C@@](C)(O)[C@H]3C[C@@H]12 [Tetracycline, reference compound] | – | – | – | – | MIC [6]: 0.5 µg/mL (≈ 1.13 µM); MIC [8]: 1 µg/mL (≈ 2.25 µM)
